{"source": "patent US9237747B2", "about": "“Herbicidal compositions comprising 4-amino-3-chloro-5-fluoro-6-(4-chloro-2-fluoro-3-methoxyphenyl) pyridine-2-carboxylic acid or a derivative thereof and insecticides” (priority 2013, dated 2016)", "key": {"[1]": {"system": "LEFPA", "test": "Postemergence foliar-applied weed control, direct-seeded rice (greenhouse)", "format": "in vivo, Leptochloa panicoides", "text": "(§1) Seeds or nutlets of the desired test plant species were planted in a soil matrix prepared by mixing a loam or sandy loam soil (e.g., 28.6 percent silt, 18.8 percent clay, and 52.6 percent sand, with a pH of about 5.8 and an organic matter content of about 1.8 percent) and calcareous grit in an 80 to 20 ratio. The soil matrix was contained in plastic pots with a volume of 1 quart and a surface area of 83.6 square centimeters (cm^2). When required to ensure good germination and healthy plants, a fungicide treatment and/or other chemical or physical treatment was applied. The plants were grown for 8-22 days in a greenhouse with an approximate 14 hour (h) photoperiod which was maintained at about 29° C. during the day and 26° C. during the night. Nutrients (Peters Excel® 15-5-15 5-Ca 2-Mg and iron chelate) were applied in the irrigation solution as needed and water was added on a regular basis. Supplemental lighting was provided with overhead metal halide 1000-Watt lamps as necessary. The plants were employed for testing when they reached the first through fourth true leaf stage.\n(§2) Treatments consisted of the acid or esters of 4-amino-3-chloro-6-(4-chloro-2-fluoro-3-methoxyphenyl)-5-fluoropyridine-2-carboxylic acid (Compound A), each formulated as an SC (suspension concentrate), and various insecticidal components alone and in combination. Forms of compound A were applied on an acid equivalent basis.\n(§3) Treatment requirements were calculated based upon the rates being tested, the concentration of active ingredient or acid equivalent in the formulation, and a 12 milliliter (mL) application volume at a rate of 187 liters per hectare (L/ha).\n(§4) For treatments comprised of formulated compounds, measured amounts of compounds were placed individually in 25 mL glass vials and diluted in a volume of 1.25% volume per volume (v/v) Agri-Dex® crop oil concentrate to obtain 12× stock solutions. […] Application solutions were prepared by adding an appropriate amount of each stock solution (e.g., 1 mL) and diluted to the appropriate final concentrations with the addition of […] of an aqueous mixture of 1.25% (v/v) crop oil concentrate so that the final spray solutions contained 1.25+/−0.05% (v/v) crop oil concentrate.\n(§5) As required, additional water and/or 97:3 v/v acetone/DMSO was added to individual application solutions so that the final acetone and DMSO concentrations of the application solutions being compared were 8.1% and 0.25%, respectively.\n(§6) All stock solutions and applications solutions were visually inspected for compound compatibility prior to application. Spray solutions were applied to the plant material with an overhead Mandel track sprayer equipped with 8002E nozzles calibrated to deliver 187 L/ha over an application area of 0.503 square meters (m^2) at a spray height of 18 to 20 inches (46 to 50 cm) above average plant canopy height. Control plants were sprayed in the same manner with the solvent blank.\n(§7) The treated plants and control plants were placed in a greenhouse as described above and watered by sub-irrigation to prevent wash-off of the test compounds. After approximately 3 weeks, the condition of the test plants as compared to that of the untreated plants was determined visually and scored on a scale of 0 to 100 percent where 0 corresponds to no injury or growth inhibition and 100 corresponds to complete kill.\n(§8) Colby's equation was used to determine the herbicidal effects expected from the mixtures (Colby, S. R. Calculation of the synergistic and antagonistic response of herbicide combinations. Weeds 1967, 15, 20-22.).\n(§9) The following equation was used to calculate the expected activity of mixtures containing two active ingredients, A and B: Expected=A+B−(A×B/100)"}, "[2]": {"system": "LEFFA", "test": "Postemergence foliar-applied weed control, direct-seeded rice (greenhouse)", "format": "in vivo, Leptochloa fascicularis", "settings": "22 DAA", "text": "as §1, §2, §3, §4, §5, §6, §7, §8, §9"}, "[3]": {"system": "ECHCG", "format": "in vivo, Echinochloa crus-galli", "settings": "22 DAA", "procedure": "as §1, with “When required to ensure good germination and healthy plants, a fungicide treatment and/or other chemical or physical treatment was applied.” left out\nas §2, §4, §5, §6, §7, §8, §9"}, "[4]": {"system": "DIGSA", "format": "in vivo, Digitaria sanguinalis", "procedure": "as §1, with “When required to ensure good germination and healthy plants, a fungicide treatment and/or other chemical or physical treatment was applied.” left out\nas §2, §4, §5, §6, §7, §8, §9"}, "[5]": {"system": "LEFCH", "test": "whole plant or invertebrate", "format": "in vivo, Leptochloa chinensis", "settings": "Dinebra chinensis, post-emergence, 528 h, read-out: Visual Weed Control (%) - 22 DAA LEFCH Obs", "procedure": "as §1, with “When required to ensure good germination and healthy plants, a fungicide treatment and/or other chemical or physical treatment was applied.” left out\nas §2, §4, §5, §6, §7, §8, §9"}, "[6]": {"settings": "22 DAA, 140 g ai/ha alone, second part of Table 18"}, "[7]": {"settings": "22 DAA, 280 g ai/ha alone, second part of Table 18"}, "[8]": {"settings": "22 DAA, 560 g ai/ha alone, second part of Table 18"}}, "note": "Read-outs that look alike come from different tables or passages of the source.", "data": [{"smiles": "CCOC(=O)CC(SP(=S)(OC)OC)C(=O)OCC", "note": "(stereo not shown) [Malathion, S-1,2-bis(ethoxycarbonyl)ethyl O,O-dimethyl phosphorodithioate]", "values": [{"measurement": "Visual Weed Control (%) - 22 DAA LEFPA Obs", "setting": "[1]; 140 g ai/ha alone", "result": 0, "unit": "%"}, {"measurement": "Visual Weed Control (%) - 22 DAA LEFPA Obs", "setting": "[1]; 280 g ai/ha alone", "result": 0, "unit": "%"}, {"measurement": "Visual Weed Control (%) - 22 DAA LEFPA Obs", "setting": "[1]; 560 g ai/ha alone", "result": 0, "unit": "%"}, {"measurement": "Visual Weed Control (%) - 22 DAA LEFFA Obs", "setting": "[2]; 140 g ai/ha alone", "result": 0, "unit": "%"}, {"measurement": "Visual Weed Control (%) - 22 DAA LEFFA Obs", "setting": "[2]; 280 g ai/ha alone", "result": 0, "unit": "%"}, {"measurement": "Visual Weed Control (%) - 22 DAA LEFFA Obs", "setting": "[2]; 560 g ai/ha alone", "result": 0, "unit": "%"}, {"measurement": "Visual Weed Control (%) - 22 DAA ECHCG Obs", "setting": "[3]; 140 g ai/ha alone", "result": 0, "unit": "%"}, {"measurement": "Visual Weed Control (%) - 22 DAA ECHCG Obs", "setting": "[3]; 280 g ai/ha alone", "result": 0, "unit": "%"}, {"measurement": "Visual Weed Control (%) - 22 DAA ECHCG Obs", "setting": "[3]; 560 g ai/ha alone", "result": 0, "unit": "%"}, {"measurement": "Visual Weed Control (%) - 22 DAA DIGSA Obs", "setting": "[4]; 22 DAA, 140 g ai/ha alone", "result": 0, "unit": "%"}, {"measurement": "Visual Weed Control (%) - 22 DAA DIGSA Obs", "setting": "[4]; [6]", "result": 0, "unit": "%"}, {"measurement": "Visual Weed Control (%) - 22 DAA DIGSA Obs", "setting": "[4]; 22 DAA, 280 g ai/ha alone", "result": 0, "unit": "%"}, {"measurement": "Visual Weed Control (%) - 22 DAA DIGSA Obs", "setting": "[4]; [7]", "result": 0, "unit": "%"}, {"measurement": "Visual Weed Control (%) - 22 DAA DIGSA Obs", "setting": "[4]; 22 DAA, 560 g ai/ha alone", "result": 0, "unit": "%"}, {"measurement": "Visual Weed Control (%) - 22 DAA DIGSA Obs", "setting": "[4]; [8]", "result": 0, "unit": "%"}, {"measurement": "pest or weed control at 140 g/ha", "setting": "[5]; 22 DAA, 140 g ai/ha alone", "result": 0, "unit": "%"}, {"measurement": "pest or weed control at 140 g/ha", "setting": "[5]; [6]", "result": 0, "unit": "%"}, {"measurement": "pest or weed control at 280 g/ha", "setting": "[5]; 22 DAA, 280 g ai/ha alone", "result": 0, "unit": "%"}, {"measurement": "pest or weed control at 280 g/ha", "setting": "[5]; [7]", "result": 0, "unit": "%"}, {"measurement": "pest or weed control at 560 g/ha", "setting": "[5]; 22 DAA, 560 g ai/ha alone", "result": 0, "unit": "%"}, {"measurement": "pest or weed control at 560 g/ha", "setting": "[5]; [8]", "result": 0, "unit": "%"}]}, {"smiles": "CCCCOCCOCCOCc1cc2c(cc1CCC)OCO2", "note": "[Piperonyl Butoxide, 5-[[2-(2-butoxyethoxy)ethoxy]methyl]-6-propyl-1,3-benzodioxole]", "values": [{"measurement": "Visual Weed Control (%) - 22 DAA LEFPA Obs", "setting": "[1]; 140 g ai/ha alone", "result": 0, "unit": "%"}, {"measurement": "Visual Weed Control (%) - 22 DAA LEFPA Obs", "setting": "[1]; 280 g ai/ha alone", "result": 5, "unit": "%"}, {"measurement": "Visual Weed Control (%) - 22 DAA LEFPA Obs", "setting": "[1]; 560 g ai/ha alone", "result": 0, "unit": "%"}, {"measurement": "Visual Weed Control (%) - 22 DAA LEFFA Obs", "setting": "[2]; 140 g ai/ha alone", "result": 0, "unit": "%"}, {"measurement": "Visual Weed Control (%) - 22 DAA LEFFA Obs", "setting": "[2]; 280 g ai/ha alone", "result": 5, "unit": "%"}, {"measurement": "Visual Weed Control (%) - 22 DAA LEFFA Obs", "setting": "[2]; 560 g ai/ha alone", "result": 0, "unit": "%"}, {"measurement": "Visual Weed Control (%) - 22 DAA DIGSA Obs", "setting": "[4]; in vivo", "result": 0, "unit": "%"}, {"measurement": "pest or weed control at 140 g/ha", "setting": "[5]", "result": 0, "unit": "%"}, {"measurement": "pest or weed control at 280 g/ha", "setting": "[5]", "result": 0, "unit": "%"}, {"measurement": "pest or weed control at 560 g/ha", "setting": "[5]", "result": 0, "unit": "%"}]}]}
